# Test results published in patent US20240208898A1, “ENAMINE N-OXIDES: SYNTHESIS AND APPLICATION TO HYPOXIA-RESPONSIVE PRODRUGS AND IMAGING AGENTS” (DANA-FARBER CANCER INSTITUTE, INC., priority 2021, published 2024).
# Tests used:
# [1] = tested on: series of cancer cell lines; assay: In-gel fluorescence labeling profile in a series of cancer cell lines; format: cell-based
# Protocol: Cells were seeded at a density of 200,000 cells per well in media [2 mL, RPMI (A431, H460, HeLa, Bx-PC3, MDA-MB-231) or DMEM (U251) supplemented with 5% heat-inactivated human serum (Sigma), penicillin (100 units/mL), and streptomycin (0.1 mg/mL)] in 6-well plates. Cells were incubated at 37° C. under ambient atmosphere with 5% CO2. After 24 h, the media was aspirated and replaced with fresh media [1 mL, RPMI (A431, H460, HeLa, Bx-PC3, MDA-MB-231) or DMEM (U251) supplemented with 5% heat-inactivated human serum, penicillin (100 units/mL), and streptomycin (0.1 mg/mL)] containing enamine N-oxide probe (200 mM in ethanol; 10 μM final concentration). Plates were then incubated at 37° C. under ambient (20% pO2) or various oxygenated conditions (5%, 1%, or 0.1% pO2) with 5% CO2. […] The protein concentration was determined by BCA assay following the manufacturer's protocol (Pierce). […] The dried pellet was then resuspended in an SDS solution (50 μL, 1% SDS in 50 mM Tris, pH 8.0), and the protein concentration was determined by BCA assay. […] In-gel fluorescence was visualized by a laser scanner (Typhoon™ FLA 9500, GE) and quantified using ImageJ software. […] Detection was mediated by an anti-rabbit IR680-dye conjugated secondary antibody (LI-COR Biosciences, 925-68071) and imaged using a fluorescence scanner (Odyssey CLx, LI-COR Biosciences).
# [2] = tested on: BxPC-3 pancreatic cancer cell line; assay: In-gel fluorescence imaging of cells labeled by enamine N-oxides; format: cell-based
# Protocol: Cells were seeded at a density of 200,000 cells per well in media [2 mL, RPMI (A431, H460, HeLa, Bx-PC3, MDA-MB-231) or DMEM (U251) supplemented with 5% heat-inactivated human serum (Sigma), penicillin (100 units/mL), and streptomycin (0.1 mg/mL)] in 6-well plates. Cells were incubated at 37° C. under ambient atmosphere with 5% CO2. After 24 h, the media was aspirated and replaced with fresh media [1 mL, RPMI (A431, H460, HeLa, Bx-PC3, MDA-MB-231) or DMEM (U251) supplemented with 5% heat-inactivated human serum, penicillin (100 units/mL), and streptomycin (0.1 mg/mL)] containing enamine N-oxide probe (200 mM in ethanol; 10 μM final concentration). Plates were then incubated at 37° C. under ambient (20% pO2) or various oxygenated conditions (5%, 1%, or 0.1% pO2) with 5% CO2. Oxygenated conditions were maintained using a hypoxia chamber (ProOx C21, Biospherix) in a cell culture incubator. […] PBS (1 mL) was then added to each well and cells were scraped off with a cell scraper. The cell suspensions were placed into microcentrifuge tubes and pelleted by spinning at 10,000×g for 5 minutes at 4° C. The supernatant was then removed, and the pellet was dissolved with an SDS solution (100 μL, 1% SDS in 50 mM Tris buffer, pH 8.0). The protein concentration was determined by BCA assay following the manufacturer's protocol (Pierce). The sample was then labeled using the copper-catalyzed azide-alkyne cycloaddition (CuAAC). […] The dried pellet was then resuspended in an SDS solution (50 μL, 1% SDS in 50 mM Tris, pH 8.0), and the protein concentration was determined by BCA assay. […] In-gel fluorescence was visualized by a laser scanner (Typhoon™ FLA 9500, GE) and quantified using ImageJ software. […] Detection was mediated by an anti-rabbit IR680-dye conjugated secondary antibody (LI-COR Biosciences, 925-68071) and imaged using a fluorescence scanner (Odyssey CLx, LI-COR Biosciences).
Compound,labeling profile (hypoxic vs normoxic) [1],"labeling in cell culture (oxygen dependence) ([2]; BxPC-3, 48 h)","oxygen tension of probe activation ([2]; BxPC-3, over 48 h, CuAAC with TAMRA-azide)","labeling of cells under normoxia and hypoxia ([2]; Bx-PC3 cells, 10 μM, 12 h, in-gel fluorescence after CuAAC with TAMRA-azide)"
"C#CCCCCC(F)/C=C/[N+]([O-])(CC)CC (stereo not shown) [probe 39, (E)-N,N-diethyl-3-fluoronon-1-en-8-yn-1-amine oxide]",hypoxia selectivity,oxygen-dependent labeling,ca. 1 % pO2,
"C#CCN(CCCCCC(F)/C=C/[N+]([O-])(CC)CC)C(=O)c1ccc(C2=c3cc4c(cc3[Si](C)(C)c3cc5c(cc32)CCN5C)=[N+](C)CC4)c(C)c1 (stereo not shown) [probe 42, Si700-enamine N-oxide]",,,,labeled Bx-PC3 cells in a hypoxia-dependent manner
